# Results reported in ChEMBL document CHEMBL3813674 (Medchemcomm, 2016).
# Columns and labels:
# Format in all cases: physicochemical
# [1] = Solubility of the compound in ChCl-P solvent at HBA:HBD 1:2 molar ratio and 37 degC measured after 24 hrs by HPLC analysis
# [2] = Solubility of the compound in ChCl-G solvent at 37 degC measured after 24 hrs by HPLC analysis
# [3] = Solubility of the compound in ChCl-EG solvent at 37 degC measured after 24 hrs by HPLC analysis
# [4] = Solubility of the compound in ChCl-GA1 solvent at 37 degC measured after 24 hrs by HPLC analysis
# [5] = Solubility of the compound in ChCl-GA2 solvent at 37 degC measured after 24 hrs by HPLC analysis
# [6] = Solubility of the compound in ChCl-MA1 solvent at 37 degC measured after 24 hrs by HPLC analysis
# [7] = Solubility of the compound in ChCl-OA solvent at 37 degC measured after 24 hrs by HPLC analysis
# [8] = Solubility of the compound in ChCl-LA1 solvent at 37 degC measured after 24 hrs by HPLC analysis
# [9] = Solubility of the compound in ChCl-LA2 solvent at 37 degC measured after 24 hrs by HPLC analysis
# [10] = Solubility of the compound in ChCl-U solvent at 37 degC measured after 24 hrs by HPLC analysis
# [11] = Solubility of the compound in EAC-EG solvent at 37 degC measured after 24 hrs by HPLC analysis
# [12] = Solubility of the compound in EAC-P solvent at 37 degC measured after 24 hrs by HPLC analysis
# [13] = Solubility of the compound in EAC-LA2 solvent at 37 degC measured after 24 hrs by HPLC analysis
# [14] = Solubility of the compound in TPAB-P solvent at 37 degC measured after 24 hrs by HPLC analysis
# [15] = Solubility of the compound in TPAB-LA1 solvent at 37 degC measured after 24 hrs by HPLC analysis
# [16] = Solubility of the compound in BE-LA1 solvent at 37 degC measured after 24 hrs by HPLC analysis
# [17] = Solubility of the compound in ChBt-LA1 solvent at 37 degC measured after 24 hrs by HPLC analysis
# [18] = Solubility of the compound in water at 37 degC measured after 24 hrs by HPLC analysis; settings: for solubility at 24 h: water
# [19] = Solubility of the compound in ChCl-P solvent at HBA:HBD 1:3 molar ratio and 37 degC measured after 24 hrs by HPLC analysis
# [20] = Solubility of the compound in ChCl-P solvent at HBA:HBD 1:4 molar ratio and 37 degC measured after 24 hrs by HPLC analysis
# [21] = Solubility of the compound in ChCl-P solvent at HBA:HBD 1:5 molar ratio and 37 degC measured after 24 hrs by HPLC analysis
# [22] = Solubility of the compound in 1,2-propanediol at 37 degC measured after 24 hrs by HPLC analysis
# [23] = Solubility of the compound in ChCl-LA1 solvent at HBA:HBD 1:2 molar ratio and 37 degC measured after 24 hrs by HPLC analysis
# [24] = Solubility of the compound in ChCl-LA1 solvent at HBA:HBD 1:3 molar ratio and 37 degC measured after 24 hrs by HPLC analysis
# [25] = Solubility of the compound in ChCl-LA1 solvent at HBA:HBD 1:4 molar ratio and 37 degC measured after 24 hrs by HPLC analysis
# [26] = Solubility of the compound in ChCl-LA1 solvent at HBA:HBD 1:5 molar ratio and 37 degC measured after 24 hrs by HPLC analysis
# [27] = Solubility of the compound in levulinic acid at 37 degC measured after 24 hrs by HPLC analysis
# [28] = Half life of the compound at optimal pH
# [29] = Ratio of half life of compound in ChCl-P solvent to half life of compound in water; settings: buffer
# [30] = Half life of compound in ChCl-P solvent at 2.5 mg by HPLC method
# [31] = Half life of compound in water at 2.5 mg by HPLC method
solubility [1] [mg/mL],solubility [2] [mg/mL],solubility [3] [mg/mL],solubility [4] [mg/mL],solubility [5] [mg/mL],solubility [6] [mg/mL],solubility [7] [mg/mL],solubility [8] [mg/mL],solubility [9] [mg/mL],solubility [10] [mg/mL],solubility [11] [mg/mL],solubility [12] [mg/mL],solubility [13] [mg/mL],solubility [14] [mg/mL],solubility [15] [mg/mL],solubility [16] [mg/mL],solubility [17] [mg/mL],solubility [19] [mg/mL],solubility [20] [mg/mL],solubility [21] [mg/mL],Structure (SMILES),also measured
324,140.3,287,238.1,224.8,266.3,186.7,279,254,169.7,173.9,188.6,141.2,352.7,316.5,212.1,89.07,324,267.9,246.2,CC(=O)Nc1ccc(O)cc1 [ACETAMINOPHEN],solubility at 24 h [18]: 19.9 mg/mL; solubility [22]: 235.1 mg/mL; solubility [23]: 279 mg/mL; solubility [24]: 217.4 mg/mL; solubility [25]: 208.4 mg/mL; solubility [26]: 199.8 mg/mL; solubility [27]: 144.5 mg/mL
202,42.48,139,76.28,67.43,126.3,86.32,135,91.3,147.9,56.84,82.18,44.57,220.2,163.7,149.8,37.06,184.6,179.2,168.7,CC(=O)Oc1ccccc1C(=O)O [ASPIRIN],"solubility ([18]; buffer, 24 h): 3.3 mg/mL; solubility [22]: 134.3 mg/mL; solubility [23]: 135 mg/mL; solubility [24]: 113.1 mg/mL; solubility [25]: 109.9 mg/mL; solubility [26]: 104.4 mg/mL; solubility [27]: 95.63 mg/mL; half-life [28]: < 336 h; Ratio [29]: 8.2; half-life [30]: 17.5 h; half-life [31]: 2.13 h"

Structure (SMILES),solubility [1] [mg/mL],solubility [2] [mg/mL],solubility [3] [mg/mL],solubility [4] [mg/mL],solubility [5] [mg/mL],solubility [6] [mg/mL],solubility [7] [mg/mL],solubility [8] [mg/mL],solubility [9] [mg/mL],solubility [10] [mg/mL],solubility [11] [mg/mL],solubility [12] [mg/mL],solubility [13] [mg/mL],solubility [14] [mg/mL],solubility [15] [mg/mL],solubility [16] [mg/mL],solubility [17] [mg/mL],solubility [19] [mg/mL],solubility [20] [mg/mL],solubility [21] [mg/mL],also measured
CC(C)Cc1ccc(C(C)C(=O)O)cc1 (stereo unspecified) [IBUPROFEN],183.3,3.82,24.29,25.38,9.49,25.87,31.51,78.69,17.95,4.5,21.42,141.6,20.67,383.4,194.8,280.2,35.05,191.7,226.1,267.6,solubility at 24 h [18]: 0.07 mg/mL; solubility [22]: 380 mg/mL; solubility [27]: 159.4 mg/mL
